Measured values as given in patent publication US20250108038A1 (priority 2023, published 2025).
pIC50: −log10 of the molar value. Several values for one entry are separate records, joined by “and”; a condition that tells them apart may be missing. Equal values may be shown once. Read-outs that look alike come from different tables or passages of the source.

Experiments:
[1] = system: orexin/tTA; Tet-O diphtheria toxin A mice (DTA mice); assay type: in vivo, mouse; conditions: for latency to REM: vehicle about 100 min
[2] = Description: Twelve male Wistar Han rats were divided into 4 groups, n=3 per group.
Dose solutions were prepared freshly on the day of study prior to dosing.
The animals were weighed immediately prior to dosing and the dose volume was calculated individually based the obtained body weight and the nominal dose volume. […] The test articles were administered either orally by gavage, or intraperitoneally by injection. The nominal dose volume was 10 mL/kg for both compounds and both routes.
Cage side observation was performed before and after dosing as well as at each scheduled sample collection. The observation included appearance, posture, behavior, morbidity and mortality. Abnormal findings, if any, were recorded in the study notebook and communicated with study director, veterinarian, and Supernus if necessary.
Approximately 100 μL blood was collected at each scheduled time point from jugular veins. The actual sample collection time was within 1 min. of the nominal time for collections prior to or at 1 hour, and within 5% of the nominal time for collections post 1 hour.
The blood samples were placed in pre-labeled micro-centrifuge tubes containing K2EDTA as anticoagulant and kept on ice, and then were processed to plasma within 30 minutes of collection by centrifugation at 4° C., 3000 g for 5 minutes, and then stored at −70±10° C. until analysis by LC-MS/MS.
Plasma concentrations below the LLOQ prior to Tmax were set to zero, and those after Tmax were excluded from PK calculation. The nominal dose and the nominal sample collection time were used for the calculation. The values of plasma concentrations and PK parameters are reported to three significant figures. The average values of each treatment group are presented as mean±SD.

OATP1B3 = target: T1, OATP1B3 (Homo sapiens, UniProt Q9NPD5); assay: Uptake transporter inhibition assay, OATP1B3 (CCK-8)
T1 sequence (Q9NPD5 1-702): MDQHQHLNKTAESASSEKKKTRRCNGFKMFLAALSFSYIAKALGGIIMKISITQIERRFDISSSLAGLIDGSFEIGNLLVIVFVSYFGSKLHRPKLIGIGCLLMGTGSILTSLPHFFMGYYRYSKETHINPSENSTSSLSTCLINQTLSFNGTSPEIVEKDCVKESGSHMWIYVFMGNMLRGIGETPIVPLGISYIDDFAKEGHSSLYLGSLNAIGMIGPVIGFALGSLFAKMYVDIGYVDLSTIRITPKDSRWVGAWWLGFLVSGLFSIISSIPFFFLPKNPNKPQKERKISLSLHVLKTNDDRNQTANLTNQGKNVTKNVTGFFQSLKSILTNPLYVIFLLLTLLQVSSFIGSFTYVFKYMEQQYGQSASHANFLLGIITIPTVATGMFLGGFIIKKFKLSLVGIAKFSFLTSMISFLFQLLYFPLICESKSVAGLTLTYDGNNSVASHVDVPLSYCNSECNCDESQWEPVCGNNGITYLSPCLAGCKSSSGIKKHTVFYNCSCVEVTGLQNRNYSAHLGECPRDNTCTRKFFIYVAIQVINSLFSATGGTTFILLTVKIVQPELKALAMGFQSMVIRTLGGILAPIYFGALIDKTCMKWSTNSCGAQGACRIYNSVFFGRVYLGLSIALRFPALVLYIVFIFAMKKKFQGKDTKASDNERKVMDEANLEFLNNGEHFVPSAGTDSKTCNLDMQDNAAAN
Description: Uptake experiments were performed using HEK293 cells stably expressing the respective uptake transporters. The assays were conducted according to the actual SOLVO uptake transporter assay protocols (PR-ASY-UPT-General Protocol for Uptake Transporter Inhibition Assays).
Cells were cultured at 37° C. in a humidified atmosphere containing 5% CO2 and were plated onto standard 96-well tissue culture plates.
Before the experiment, the medium was removed, and the cells were washed twice with 100 μL of pre-warmed (37° C.) assay buffer listed in Table 15. The cells were pre-incubated at 37° C. for 30 minutes in assay buffer containing the test article at appropriate concentrations (Table 16), appropriate solvents for solvent controls and the reference inhibitor for reference inhibitor wells. After the pre-incubation step solutions were removed. Uptake experiments were performed at 37° C. in 50 μL of assay buffer containing the probe substrate and the test article or solvent and controls.
After the experiment, cells were washed twice with 100 μL of appropriate cold buffer and lysed with 150 μL scintillation cocktail. Radiolabeled probe substrate transport was determined by liquid scintillation counting.
Uptake of the probe substrate in control cells provided background activity values for all data points.

[3] = last 6 h of the dark period (ZT19-ZT24)
[4] = single IP Compound I-19 4.061 mg/kg, male Wistar Han rats, individual animals
[5] = single IP Compound I-19 4.061 mg/kg, male Wistar Han rats, mean
[6] = single PO Compound I-19 4.061 mg/kg, male Wistar Han rats, individual animals
[7] = single PO Compound I-19 4.061 mg/kg, male Wistar Han rats, mean
[8] = 0.14 μM nominal, 0.09 μM NSB corrected, follow-up assay
[9] = 1.24 μM nominal, 0.86 μM NSB corrected, follow-up assay
[10] = 10.00 μM nominal, 6.60 μM NSB corrected
[11] = 11.11 μM nominal, 7.89 μM NSB corrected, follow-up assay
[12] = 33.33 μM nominal, 24.33 μM NSB corrected, follow-up assay
[13] = 100.00 μM nominal, 77.00 μM NSB corrected
[14] = 100.00 μM nominal, 100.00 μM NSB corrected, follow-up assay
[15] = […] nominal, 1.89 μM NSB corrected, follow-up assay

Clc1ccc(C2(OCC3OCCO3)c3ccccc3C3=NCCN32)cc1 (centres unmarked) [Compound I-19]
body temperature (Tb) ([1]; 6 h after dosing at ZT12): No significant effects | locomotor activity (LMA) ([1]; 6 h after dosing at ZT12): No significant effects | total W or NREM time ([1]; 6 h after dosing at ZT12): No significant effects on total W or NREM were observed | cataplexy (C) time ([1]; 6 h after dosing at ZT12, Compound I-19 0.3, 1, 3 mg/kg i.p., Compound I-4 0.3, 1, 3 mg/kg p.o., Des 5 mg/kg p.o.): Total C time significantly decreased following all three concentrations | REM time ([1]; 6 h after dosing at ZT12, same doses): REM time significantly decreased following Compound I-19 at the two highest doses (1 and 3 mg/kg) | REM:NR ratio ([1]; Compound I-19 1 mg/kg i.p.): ~0.2 | latency to REM ([1]; Compound I-19 1 mg/kg i.p.): ~275 min | REM:NR ratio ([1]; Compound I-19 3 mg/kg i.p.): ~0.1 | latency to REM ([1]; Compound I-19 3 mg/kg i.p.): ~325 min | cataplexy (C), hourly, cumulative and total time [1, 3]: significantly less following the high concentration of Compound I-19 (3 mg/kg) | time in W, NREM or REM [1, 3]: not different from Veh | plasma concentration of Compound I-19 ([2]; 0.500 h, single IP Compound I-19 4.061 mg/kg, male Wistar Han rats, individual animals): 150 ng/mL and 193 ng/mL and 136 ng/mL | plasma concentration of Compound I-19 ([2]; 0.500 h, single IP Compound I-19 4.061 mg/kg, male Wistar Han rats, mean): 160 ng/mL | plasma concentration of Compound I-19 ([2]; 2.00 h, single IP Compound I-19 4.061 mg/kg, male Wistar Han rats, individual animals): 126 ng/mL and 144 ng/mL and 188 ng/mL | plasma concentration of Compound I-19 ([2]; 2.00 h, single IP Compound I-19 4.061 mg/kg, male Wistar Han rats, mean): 153 ng/mL | plasma concentration of Compound I-19 ([2]; 2.00 h, single PO Compound I-19 4.061 mg/kg, male Wistar Han rats, individual animals): BQL | plasma concentration of Compound I-19 ([2]; 4.00 h, single IP Compound I-19 4.061 mg/kg, male Wistar Han rats, individual animals): 73.3 ng/mL and 69.9 ng/mL and 91.6 ng/mL | plasma concentration of Compound I-19 ([2]; 4.00 h, single IP Compound I-19 4.061 mg/kg, male Wistar Han rats, mean): 78.3 ng/mL | plasma concentration of Compound I-19 ([2]; 4.00 h, single PO Compound I-19 4.061 mg/kg, male Wistar Han rats, individual animals): BQL | plasma concentration of Compound I-19 ([2]; 8.00 h, single IP Compound I-19 4.061 mg/kg, male Wistar Han rats, individual animals): 6.11 ng/mL and 10.1 ng/mL and 10.7 ng/mL | plasma concentration of Compound I-19 ([2]; 8.00 h, single IP Compound I-19 4.061 mg/kg, male Wistar Han rats, mean): 8.97 ng/mL | plasma concentration of Compound I-19 ([2]; 8.00 h, single PO Compound I-19 4.061 mg/kg, male Wistar Han rats, individual animals): BQL | plasma concentration of Compound I-19 ([2]; 24.0 h, single IP Compound I-19 4.061 mg/kg, male Wistar Han rats, individual animals): BQL | plasma concentration of Compound I-19 ([2]; 24.0 h, single PO Compound I-19 4.061 mg/kg, male Wistar Han rats, individual animals): BQL | plasma concentration of Compound I-19 ([2]; […] h, single IP Compound I-19 4.061 mg/kg, male Wistar Han rats, mean): 168 ng/mL | Clinical observation (tolerability) ([2]; male Wistar Han rats, PO and IP, administered dosages): well tolerated | T1/2 of the administered compound ([2]; rat, in vivo, ip): 1.43 ± 0.107 h | AUC0-inf of Compound I-19 [2, 4]: 584 ng·h/mL and 660 ng·h/mL and 771 ng·h/mL | AUC0-last of Compound I-19 [2, 4]: 572 ng·h/mL and 637 ng·h/mL and 749 ng·h/mL | Cmax of Compound I-19 [2, 4]: 158 ng/mL and 193 ng/mL and 192 ng/mL | MRT0-inf of Compound I-19 [2, 4]: 2.63 h and 2.73 h and 2.80 h | MRT0-last of Compound I-19 [2, 4]: 2.48 h and 2.47 h and 2.59 h | T1/2 of Compound I-19 [2, 4]: 1.33 h and 1.54 h and 1.43 h | Tlast of Compound I-19 [2, 4]: 8.00 h | Tmax of Compound I-19 [2, 4]: 0.500 h | AUC0-inf of Compound I-19 [2, 5]: 672 ng·h/mL | AUC0-last of Compound I-19 [2, 5]: 653 ng·h/mL | Cmax of Compound I-19 [2, 5]: 181 ng/mL | MRT0-inf of Compound I-19 [2, 5]: 2.72 h | MRT0-last of Compound I-19 [2, 5]: 2.51 h | T1/2 of Compound I-19 [2, 5]: 1.43 h | Tlast of Compound I-19 [2, 5]: 8.00 h | Tmax of Compound I-19 [2, 5]: 0.583 h | AUC0-last of Compound I-19 [2, 6]: 0.510 ng·h/mL and 0.285 ng·h/mL | Cmax of Compound I-19 [2, 6]: 1.02 ng/mL and 1.14 ng/mL | MRT0-last of Compound I-19 [2, 6]: 1.00 h and 0.500 h | Tlast of Compound I-19 [2, 6]: 1.00 h and 0.500 h | Tmax of Compound I-19 [2, 6]: 0.500 h | AUC0-last of Compound I-19 [2, 7]: 0.398 ng·h/mL | Cmax of Compound I-19 [2, 7]: 1.08 ng/mL | MRT0-last of Compound I-19 [2, 7]: 0.750 h | Tlast of Compound I-19 [2, 7]: 0.750 h | Relative inhibition (OATP1B3; [8]): 1% | Relative transporter specific accumulation (OATP1B3; [8]): 99.35 ± 3.01 % of control | Transporter specific accumulation (OATP1B3; [8]): 1,167.00 ± 32.35 cpm | Relative inhibition (OATP1B3; [9]): 8% | Relative transporter specific accumulation (OATP1B3; [9]): 91.63 ± 3.53 % of control | Transporter specific accumulation (OATP1B3; [9]): 1,076.33 ± 39.37 cpm | Relative inhibition (OATP1B3; [10]): 7% | Relative transporter specific accumulation (OATP1B3; [10]): 93.13 ± 0.99 % of control | Transporter specific accumulation (OATP1B3; [10]): 1,953.33 ± 8.60 cpm | Relative inhibition (OATP1B3; [11]): 20% | Relative transporter specific accumulation (OATP1B3; [11]): 80.11 ± 4.16 % of control | Transporter specific accumulation (OATP1B3; [11]): 941.00 ± 47.56 cpm | Relative inhibition (OATP1B3; [12]): 23% | Relative transporter specific accumulation (OATP1B3; [12]): 77.21 ± 2.52 % of control | Transporter specific accumulation (OATP1B3; [12]): 907.00 ± 27.52 cpm | Relative inhibition (OATP1B3; [13]): 50% | Relative transporter specific accumulation (OATP1B3; [13]): 50.40 ± 2.21 % of control | Transporter specific accumulation (OATP1B3; [13]): 1,057.00 ± 45.14 cpm | Relative inhibition (OATP1B3; [14]): 61% | Relative transporter specific accumulation (OATP1B3; [14]): 39.13 ± 2.03 % of control | Transporter specific accumulation (OATP1B3; [14]): 459.67 ± 23.17 cpm | maximum inhibition of OATP1B3-mediated CCK-8 accumulation (OATP1B3; 2-concentration assay, up to 100 μM (Compound A up to 30 μM)): 50% | Maximum % inhibition (OATP1B3; OATP1B3, HEK293 cells, CCK-8 (1 μM), NIO: no inhibition observed): 61% | Relative inhibition (OATP1B3; [15]): 4% | Relative transporter specific accumulation (OATP1B3; [15]): 96.17 ± 1.42 % of control | Transporter specific accumulation (OATP1B3; [15]): 1,129.67 ± 9.53 cpm | maximum inhibition of OATP1B3-mediated CCK-8 accumulation (OATP1B3; follow-up assay): 61% | pIC50 (OATP1B3; follow-up assay, NSB-corrected concentrations): 4.08
